One compound from publication PMC11395232, “Aquaporin-3a Dysfunction Impairs Osmoadaptation in Post-Activated Marine Fish Spermatozoa” (International Journal of Molecular Sciences, 2024) can be followed below.

In experiment [1] the target is T1, human AQP3 (HsAQP3) (Homo sapiens, UniProt Q92482).
T1 construct: cDNA heterologously expressed in Xenopus laevis oocytes (10 ng cRNA)
T1 sequence (Q92482 1-292): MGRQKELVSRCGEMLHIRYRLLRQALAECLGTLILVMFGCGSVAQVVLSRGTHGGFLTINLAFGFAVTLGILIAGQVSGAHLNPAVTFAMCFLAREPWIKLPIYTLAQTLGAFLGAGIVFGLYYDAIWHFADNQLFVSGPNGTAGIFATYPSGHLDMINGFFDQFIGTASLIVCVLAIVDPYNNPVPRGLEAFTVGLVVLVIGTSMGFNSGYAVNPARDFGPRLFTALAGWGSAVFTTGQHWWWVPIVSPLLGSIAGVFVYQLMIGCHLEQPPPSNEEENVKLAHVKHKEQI
Description: oocyte swelling assay, osmotic water permeability (Pf). The format is cell-based.

Experiment [2] concerns the target T2, Aqp3a (SaAqp3a) (Sparus aurata, UniProt A0A671Y259).
T2 construct: cDNA heterologously expressed in Xenopus laevis oocytes (10 ng cRNA); calculated monomer mass 33 kDa
T2 sequence (A0A671Y259 1-302): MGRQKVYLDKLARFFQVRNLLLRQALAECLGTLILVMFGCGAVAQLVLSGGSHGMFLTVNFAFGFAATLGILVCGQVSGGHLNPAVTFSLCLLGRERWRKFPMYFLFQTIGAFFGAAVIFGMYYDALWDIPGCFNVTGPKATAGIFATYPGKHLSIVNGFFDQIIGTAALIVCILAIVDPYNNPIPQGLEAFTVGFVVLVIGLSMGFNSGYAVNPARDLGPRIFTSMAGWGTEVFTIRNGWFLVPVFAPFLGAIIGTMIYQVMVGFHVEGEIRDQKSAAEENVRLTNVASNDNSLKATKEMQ
Described as above. It counts as cell-based.

For orientation: inhibition means the percentage by which the read-out fell short of the control. Low values mean little suppression, high ones strong suppression. As to `O=C(Nc1csc([N+](=O)[O-])c1)Nc1c(Cl)cccc1Cl` [DFP00173], the figures for the inhibition at 10 µM in experiment [1] and in experiment [2] were 66 ± 4% and 76 ± 4%, respectively.
